In ChEMBL document CHEMBL1130701, “Dual antagonists of platelet activating factor and histamine. 3. Synthesis, biological activity and conformational implications of substituted N-acyl-bis-arylcycloheptapiperazines” (Bioorg Med Chem Lett, 1998):

Assays:
[1] = species: Homo sapiens; test: tissue or blood; type: functional, organism-based; conditions: Plasma
[2] = molecular target: Histamine H1 receptor (Rattus norvegicus, UniProt P31390); test: Binding affinity against Histamine H1 receptor using receptor binding assay in rat brain membranes; type: cell membranes
Chain of Histamine H1 receptor (P31390 whole entry): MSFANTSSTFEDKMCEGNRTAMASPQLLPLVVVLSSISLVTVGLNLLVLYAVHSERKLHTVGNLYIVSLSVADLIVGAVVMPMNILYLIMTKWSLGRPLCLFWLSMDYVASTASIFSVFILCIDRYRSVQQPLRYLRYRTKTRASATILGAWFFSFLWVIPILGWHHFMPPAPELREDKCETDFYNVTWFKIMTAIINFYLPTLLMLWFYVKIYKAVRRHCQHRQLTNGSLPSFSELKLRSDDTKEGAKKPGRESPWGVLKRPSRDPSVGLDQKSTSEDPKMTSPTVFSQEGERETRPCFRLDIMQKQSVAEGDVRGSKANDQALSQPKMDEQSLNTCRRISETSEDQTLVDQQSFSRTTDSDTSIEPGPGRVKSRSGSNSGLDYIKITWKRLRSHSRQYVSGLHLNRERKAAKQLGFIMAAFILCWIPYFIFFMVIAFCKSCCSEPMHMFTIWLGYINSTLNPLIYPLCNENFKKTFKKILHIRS

| SMILES | IC50 [1] [µM] | Ki [2] [µM] |
| --- | --- | --- |
| Clc1ccc2c(c1)CCc1cccnc1C2N1CCNCC1 (stereo not given) | ≥ 23 | 0.0064 |
| CN1CCN(C2c3ccc(Cl)cc3CCc3cccnc32)CC1 (stereo not given) | 28 | 0.0065 |
| CC(=O)N1[C@H](C)CN(C2c3ccc(Cl)cc3CCc3cccnc32)C[C@@H]1C (stereo not given in full) | > 50 | ≥ 7.1 |
| CCOC(=O)N1CCN(C2c3ccc(Cl)cc3CCc3cccnc32)CC1 (stereo not given) | > 50 | ≥ 3.8 |
| CCCC(=O)N1CCC(=C2c3ccc(Cl)cc3CCc3cccnc32)CC1 | 33 | – |
| CN1CCN(C2c3ccc(Cl)cc3CCc3cccnc32)CC1=O (stereo not given) | > 50 | 0.049 |
| CC(=O)N1CCC(=C2c3ccccc3CCc3ccccc32)CC1 | 41 | – |
| O=C1CN(C2c3ccc(Cl)cc3CCc3cccnc32)CCN1 (stereo not given) | > 50 | 0.14 |
| CN1CCC(=C2c3ccc(Cl)cc3CCc3cccnc32)CC1 | ≥ 50 | – |
| CN(C)CCC(c1ccc(Cl)cc1)c1ccccn1 (stereo not given) [CHLORPHENIRAMINE] | > 50 | – |

The remaining compounds from weak to strong by IC50 [1], led by results:

| IC50 [1] [µM] | Ki [2] [µM] | SMILES |
| --- | --- | --- |
| 26 | 3.7 | CC(=O)N1CCN(C2c3ccccc3CCc3ccccc32)CC1 |
| 15 | 3.6 | CCCC(=O)N1CCN(C2c3ccc(Cl)cc3CCc3cccnc32)CC1 (stereo not given) |
| 14 | – | O=CN1CCC(=C2c3ccc(Cl)cc3CCc3cccnc32)CC1 |
| 14 | ≥ 5 | CC(=O)N1CCN(C2c3ccc(Cl)cc3CCc3cccnc32)C[C@@H]1C (stereo not given in full) |
| 13 | 0.97 | CC(=O)N1CCCN(C2c3ccc(Cl)cc3CCc3cccnc32)CC1 (stereo not given) |
| 12 | 0.29 | O=CN1CCN(C2c3ccc(Cl)cc3CCc3cccnc32)CC1 (stereo not given) |
| 2.4 | – | CCC(=O)N1CCC(=C2c3ccc(Cl)cc3CCc3cccnc32)CC1 |
| 1.8 | 3.6 | O=C1CCC2CN(C3c4ccc(Cl)cc4CCc4cccnc43)CCN12 (stereo not given) |
| 1.4 | 2.5 | CCC(=O)N1CCN(C2c3ccc(Cl)cc3CCc3cccnc32)CC1 (stereo not given) |
| 1.3 | 3.6 | CC(=O)N1CCN([C@@H]2c3ccc(Cl)cc3CCc3cccnc32)CC1 |
| 0.66 | – | CC(=O)N1CCN(C2c3ccc(Cl)cc3C=Cc3cccnc32)CC1 (stereo not given) |
| 0.42 | – | CC(=O)N1CCC(=C2c3ccc(Cl)cc3C=Cc3cccnc32)CC1 |
| 0.4 | 5.4 | CC(=O)N1CCN(C2c3ccc(Cl)cc3CCc3cccnc32)CC1 (stereo not given) |
| 0.21 | > 10 | CC(=O)N1CCN([C@H]2c3ccc(Cl)cc3CCc3cccnc32)CC1 |
